Reference: EP4616862A1, “ANTIVIRAL C[…] DERIVED FROM NUCLEIC ACID AND PHARMACEUTICALLY ACCEPTABLE SALTS THEREOF” (priority 2022, dated 2024)
Like-named read-outs stand apart in the source and are kept apart here.

Legend:
[1] = tested on: African Swine Fever Virus (ASFV, China/2018/AnhuiXCGQ); experiment: microbe, parasite or virus in culture; assay type: cell-based; details: for IC50: African swine fever virus
[2] = tested on: Classical Swine Fever Virus (CSFV); experiment: microbe, parasite or virus in culture; assay type: cell-based; details: for IC50: Classical swine fever virus
[3] = tested on: Low pathogenic avian influenza virus (LPAIV, H9N2); experiment: microbe, parasite or virus in culture; assay type: cell-based; details: for IC50: unidentified influenza virus, H9N2, MDCK
[4] = tested on: Canine coronavirus (CCoV); experiment: microbe, parasite or virus in culture; assay type: cell-based
Canine adenovirus (CAV) = experiment: CAV infection inhibition in Vero cells (qPCR of viral DNA); assay type: cell-based; details: for SI (selectivity index): CC50/IC50; for IC50: Canine mastadenovirus A, Vero cell line
[5] = tested on: Canine distemper virus (CDV); experiment: microbe, parasite or virus in culture; assay type: cell-based; details: for IC50: canine distemper virus, Vero
Feline parvovirus (FPV) = experiment: microbe, parasite or virus in culture; assay type: cell-based; details: for IC50: Feline parvovirus, CRFK
Feline Calicivirus (FCV) = experiment: microbe, parasite or virus in culture; assay type: cell-based; details: for IC50: Feline calicivirus, CRFK
FIPV = FIPV infection inhibition in FCWF-4 cells (RT-qPCR); assay type: cell-based, Feline Infectious peritonitis virus; details: for IC50: Alphacoronavirus 1, 48 h, FCWF-4 cell line, FIPV 100 TCID50/well, simultaneous treatment, 2 days, RT-qPCR, read-out: IC50 (FIPV infection inhibition concentration); for SI (selectivity index): FIPV, CC50/IC50
[6] = tested on: foot and mouth disease virus (FMDV); experiment: microbe, parasite or virus in culture; assay type: cell-based; details: for IC50: Foot-and-mouth disease virus
[7] = Cytotoxicity (CCoV example); assay type: cell-based, canine; details: Table 4 (CCoV), cell line for cytotoxicity not given
[8] = Cytotoxicity (CAV example); assay type: cell-based, monkey; details: Table 5 (CAV), cell line for cytotoxicity not given
[9] = Cytotoxicity (CDV example); assay type: cell-based, monkey; details: Table 6 (CDV), cell line for cytotoxicity not given
[10] = Cytotoxicity (FPV example); assay type: cell-based, feline; details: Table 7 (FPV), cell line for cytotoxicity not given
[11] = Cytotoxicity (FCV example); assay type: cell-based, feline; details: Table 8 (FCV), cell line for cytotoxicity not given
[12] = Cytotoxicity (FIPV example); assay type: cell-based, feline; details: Table 9 (FIPV), cell line for cytotoxicity not given
ISG15 = assay type: cell-based, Pig
Mx1 = assay type: cell-based, Pig
RNaseL = assay type: cell-based, Pig
in vitro [13] = experiment: in vitro
in vitro [14] = experiment: in vitro; remark: listed apart in the source
in vitro [15] = experiment: in vitro; remark: listed apart in the source
in vitro [16] = details: hamster, bhk-21 cells
[17] = 48 h, read-out: IC50 (ASFV infection inhibition concentration)
[18] = PK-15, 48 h, read-out: IC50 (CSFV infection inhibition concentration)
[19] = 48 h, read-out: IC50 (LPAIV infection inhibition concentration)
[20] = Alphacoronavirus 1, A-72, 48 h, read-out: IC50 (CCoV infection inhibition concentration)
[21] = 48 h, CAV 100 TCID50/well, simultaneous treatment, 2 days, qPCR, read-out: IC50 (CAV infection inhibition concentration)
[22] = 72 h, read-out: IC50 (CDV infection inhibition concentration)
[23] = 48 h, read-out: IC50 (FPV infection inhibition concentration)
[24] = 24 h, read-out: IC50 (FCV infection inhibition concentration)
[25] = BHK-21, 36 h, read-out: IC50 (FMDV infection inhibition concentration)

Nc1nc2c(ncn2[C@@H](C=O)O[C@@H](C=O)CO)c(=O)[nH]1 [Dialdehyde-Guanosine, dialdehyde form of guanosine]
SI (selectivity index) [1]: > 75.9 | IC50 [1]: 79 µM | IC50 [1, 17]: < 79 µM | SI (selectivity index) [2]: > 36.1 | IC50 [2, 18]: < 165 µM | IC50 [3]: 102 µM | IC50 [3, 19]: < 102 µM | SI (selectivity index) [4]: > 54.7 | IC50 ([4]; Alphacoronavirus 1, A-72): 110 µM | IC50 [4, 20]: < 110 µM | SI (selectivity index) (Canine adenovirus (CAV); CAV): > 69.8 | IC50 (Canine adenovirus (CAV); [21]): < 85.9 µM | IC50 (Canine adenovirus (CAV); CAV, read-out: IC50): 85.9 µM | SI (selectivity index) [5]: > 46.5 | IC50 [5, 22]: < 129 µM | SI (selectivity index) (Feline parvovirus (FPV)): > 158 | IC50 (Feline parvovirus (FPV); [23]): < 38 µM | SI (selectivity index) (Feline Calicivirus (FCV)): > 329.7 | IC50 (Feline Calicivirus (FCV)): 18.2 µM | IC50 (Feline Calicivirus (FCV); [24]): < 18.2 µM | IC50 (FIPV): < 52.8 µM | SI (selectivity index) (FIPV): > 113.7 | SI (selectivity index) [6]: > 52.3 | IC50 ([6]; BHK-21): 115 µM | IC50 [6, 25]: < 115 µM | CC50 ([7]; dog, a-72 cells): > 6000 µM | CC50 ([8]; monkey, vero cells): > 6000 µM | CC50 ([9]; monkey, vero cells): > 6000 µM | CC50 ([10]; cat, crfk cells): > 6000 µM | CC50 ([11]; cat, crfk cells): > 6000 µM | CC50 ([12]; cat, fcwf-4 cells): > 6000 µM | Fold change (multiple increase compared to control group) ISG15 (ISG15): 4.7 (±0.3) | Fold change (multiple increase compared to control group) Mx1 (Mx1): 3.5 (±0.7) | Fold change (multiple increase compared to control group) RNaseL (RNaseL): 2.5 (±0.1) | CC50 (in vitro [13]; pig, pam cells): > 6000 µM | CC50 (in vitro [14]; pig, pk15 cells): > 6000 µM | CC50 (in vitro [15]; dog, mdck): > 6000 µM | CC50 (in vitro [16]): > 6000 µM

O=c1[nH]c(=O)c2ncn([C@@H](CO)OC(CO)CO)c2[nH]1 [Acyclic diol-Xanthosine, acyclic diol form of xanthosine]
SI (selectivity index) [1]: > 8.6 | IC50 [1, 17]: < 1160 µM | SI (selectivity index) [2]: > 3.4 | IC50 [2, 18]: < 2960 µM | IC50 [3, 19]: < 2000 µM | SI (selectivity index) [4]: > 3.8 | IC50 [4, 20]: < 2600 µM | SI (selectivity index) (Canine adenovirus (CAV); CAV): > 7.4 | IC50 (Canine adenovirus (CAV); [21]): < 1350 µM | SI (selectivity index) [5]: > 4.9 | IC50 [5, 22]: < 2050 µM | SI (selectivity index) (Feline parvovirus (FPV)): > 1.7 | IC50 (Feline parvovirus (FPV); [23]): < 5750 µM | SI (selectivity index) (Feline Calicivirus (FCV)): > 64.5 | IC50 (Feline Calicivirus (FCV); [24]): < 155 µM | IC50 (FIPV): < 1020 µM | SI (selectivity index) (FIPV): > 9.8 | SI (selectivity index) [6]: > 5.0 | IC50 [6, 25]: < 2000 µM | CC50 ([7]; dog, a-72 cells): > 10000 µM | CC50 ([8]; monkey, vero cells): > 10000 µM | CC50 ([9]; monkey, vero cells): > 10000 µM | CC50 ([10]; cat, crfk cells): > 10000 µM | CC50 ([11]; cat, crfk cells): > 10000 µM | CC50 ([12]; cat, fcwf-4 cells): > 10000 µM | Fold change (multiple increase compared to control group) ISG15 (ISG15): 4.7 (±1.3) | Fold change (multiple increase compared to control group) Mx1 (Mx1): 2.7 (±1.4) | Fold change (multiple increase compared to control group) RNaseL (RNaseL): 1.7 (±0.3) | CC50 (in vitro [13]; pig, pam cells): > 10000 µM | CC50 (in vitro [14]; pig, pk15 cells): > 10000 µM | CC50 (in vitro [15]; dog, mdck): > 10000 µM | CC50 (in vitro [16]): > 10000 µM

O=c1[nH]cnc2c1ncn2[C@@H](CO)OC(CO)CO [Acyclic diol-Inosine, acyclic diol form of inosine]
SI (selectivity index) [1]: > 28.3 | IC50 [1, 17]: < 353 µM | SI (selectivity index) [2]: > 5.7 | IC50 [2, 18]: < 1750 µM | IC50 [3, 19]: < 1810 µM | SI (selectivity index) [4]: > 7.9 | IC50 [4, 20]: < 1270 µM | SI (selectivity index) (Canine adenovirus (CAV); CAV): > 5.6 | IC50 (Canine adenovirus (CAV); [21]): < 1780 µM | SI (selectivity index) [5]: > 3.7 | IC50 [5, 22]: < 2700 µM | SI (selectivity index) (Feline parvovirus (FPV)): > 5.4 | IC50 (Feline parvovirus (FPV); [23]): < 1870 µM | SI (selectivity index) (Feline Calicivirus (FCV)): > 27.6 | IC50 (Feline Calicivirus (FCV); [24]): < 362 µM | IC50 (FIPV): < 872 µM | SI (selectivity index) (FIPV): > 11.5 | SI (selectivity index) [6]: > 8.3 | IC50 [6, 25]: < 1200 µM | CC50 ([7]; dog, a-72 cells): > 10000 µM | CC50 ([8]; monkey, vero cells): > 10000 µM | CC50 ([9]; monkey, vero cells): > 10000 µM | CC50 ([10]; cat, crfk cells): > 10000 µM | CC50 ([11]; cat, crfk cells): > 10000 µM | CC50 ([12]; cat, fcwf-4 cells): > 10000 µM | Fold change (multiple increase compared to control group) ISG15 (ISG15): 6.3 (±0.4) | Fold change (multiple increase compared to control group) Mx1 (Mx1): 2.8 (±0.9) | Fold change (multiple increase compared to control group) RNaseL (RNaseL): 2.0 (±0.3) | CC50 (in vitro [13]; pig, pam cells): > 10000 µM | CC50 (in vitro [14]; pig, pk15 cells): > 10000 µM | CC50 (in vitro [15]; dog, mdck): > 10000 µM | CC50 (in vitro [16]): > 10000 µM

O=C[C@@H](CO)O[C@H](C=O)n1cnc2c(=O)[nH]c(=O)[nH]c21 [Dialdehyde-Xanthosine, dialdehyde form of xanthosine]
SI (selectivity index) [1]: > 90.9 | IC50 [1, 17]: < 110 µM | SI (selectivity index) [2]: > 63.8 | IC50 ([2]; PK-15): 157 µM | IC50 [2, 18]: < 157 µM | SI (selectivity index) [3]: > 45.1 | IC50 [3, 19]: < 222 µM | SI (selectivity index) [4]: > 232.6 | IC50 ([4]; Alphacoronavirus 1, A-72): 43 µM | IC50 [4, 20]: < 43 µM | SI (selectivity index) (Canine adenovirus (CAV); CAV): > 77.2 | IC50 (Canine adenovirus (CAV); [21]): < 130 µM | SI (selectivity index) [5]: > 125.1 | IC50 [5]: 79.9 µM | IC50 [5, 22]: < 79.9 µM | SI (selectivity index) (Feline parvovirus (FPV)): > 258 | IC50 (Feline parvovirus (FPV)): 31 µM | IC50 (Feline parvovirus (FPV); [23]): < 31 µM | SI (selectivity index) (Feline Calicivirus (FCV)): > 398.0 | IC50 (Feline Calicivirus (FCV); [24]): < 20.1 µM | IC50 (FIPV): < 55.1 µM | SI (selectivity index) (FIPV): > 181.4 | CC50 [7]: > 10000 µM | CC50 [8]: > 10000 µM | CC50 [9]: > 10000 µM | CC50 [10]: > 8000 µM | CC50 [11]: > 8000 µM | CC50 [12]: > 10000 µM | Fold change (multiple increase compared to control group) ISG15 (ISG15): 4.5 (±0.4) | Fold change (multiple increase compared to control group) Mx1 (Mx1): 3.5 (±1.0) | Fold change (multiple increase compared to control group) RNaseL (RNaseL): 3.4 (±0.2) | CC50 (in vitro [13]): > 10000 µM | CC50 (in vitro [14]): > 10000 µM | CC50 (in vitro [15]): > 10000 µM
